Test results taken from ChEMBL document CHEMBL5500371, “Arginine and tryptophan-rich dendritic antimicrobial peptides that disrupt membranes for bacterial infection in vivo” (Eur J Med Chem, 2024).

What was measured:
Klebsiella pneumoniae = test: Antibacterial activity against Klebsiella pneumoniae ATCC 700603 assessed as inhibition of bacterial growth incubated for 20 hrs by broth microdilution method; type: functional
Staphylococcus aureus = test: Antibacterial activity against Staphylococcus aureus ATCC 25923 assessed as inhibition of bacterial growth incubated for 20 hrs by broth microdilution method; type: functional
Erythrocyte = test: Hemolytic activity in mouse erythrocytes assessed as 10% hemolysis incubated for 1 hr by absorbance based analysis; type: toxicity, cell-based
Pseudomonas aeruginosa = test: Antibacterial activity against Pseudomonas aeruginosa ATCC 27853 assessed as inhibition of bacterial growth incubated for 20 hrs by broth microdilution method; type: functional
[1] = Cytotoxicity against HEK293T cells assessed as cell death measured after 1 hr by resazurin dye based analysis; type: toxicity, HEK-293T; conditions: human, HEK293T cells
Bacillus subtilis = test: Antibacterial activity against Bacillus subtilis ATCC 23857 assessed as inhibition of bacterial growth incubated for 20 hrs by broth microdilution method; type: functional
Escherichia coli = test: Antibacterial activity against Escherichia coli ATCC 25922 assessed as inhibition of bacterial growth incubated for 20 hrs by broth microdilution method; type: functional
Acinetobacter baumannii = test: Antibacterial activity against Acinetobacter baumannii ATCC 19606 assessed as inhibition of bacterial growth incubated for 20 hrs by broth microdilution method; type: functional

| MIC (Klebsiella pneumoniae) [µM] | MIC (Staphylococcus aureus) [µM] | MIC (Pseudomonas aeruginosa) [µM] | MIC (Bacillus subtilis) [µM] | MIC (Escherichia coli) [µM] | MIC (Acinetobacter baumannii) [µM] | Substance | MHC10 (Erythrocyte) [µM] | CC50 at 1 h [1] [µM] |
| --- | --- | --- | --- | --- | --- | --- | --- | --- |
| 16 | 8 | 32 | 4 | 8 | 32 | H-RRRRKWWWWW-NH2 | 45.69 | 63.6 |
| 32 | 16 | 32 | 8 | 16 | 32 | H-RRRRRRKWWWWW-NH2 | 42.8 | 55.1 |
| 32 | 32 | 64 | 8 | 16 | 16 | H-RRRRRRKWWWWWW-NH2 | 24.89 | 51.5 |
| 32 | 8 | 32 | 8 | 16 | 32 | H-RRRRRRKWWWWWWW-NH2 | 19.48 | 101 |
